Laboratory results: US5530126A, “Process for the preparation of substituted 6-(pyrazol-3yl)-1,4-benzoxazin-3-ones” (Monsanto Company, priority 1994, dated 1996)

Key:
Assay type in all cases: in vivo
[1] = system: Annual bluegrass; assay: Pre-emergence herbicide test; conditions: read-out: % plant inhibition (Anbg); for inhibition at 1120 g/ha: 1.12 kg/ha; for inhibition at 11210 g/ha: 11.21 kg/ha
Procedure, shortened: (§1)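 Compound applied pre-emergence directly onto sown seeds in soil, then seeds covered with untreated topsoil. Plants grown in greenhouse with bottom watering. Inhibition (%) recorded visually at about 11 days.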

[2] = system: Yellow nutsedge; assay: Pre-emergence herbicide test; conditions: Cyperus, read-out: % plant inhibition (Yens); for inhibition at 1120 g/ha: 1.12 kg/ha; for inhibition at 11210 g/ha: 11.21 kg/ha
Procedure, shortened: as §1

[3] = system: Cocklebur; assay: Pre-emergence herbicide test; conditions: Xanthium strumarium, read-out: % plant inhibition (Cobu); for inhibition at 1120 g/ha: 1.12 kg/ha; for inhibition at 11210 g/ha: 11.21 kg/ha
Procedure, shortened: as §1

[4] = system: Indian Mustard; assay: Pre-emergence herbicide test; conditions: Brassica juncea, read-out: % plant inhibition (Inmu); for inhibition at 1120 g/ha: 1.12 kg/ha; for inhibition at 11210 g/ha: 11.21 kg/ha
Procedure, shortened: as §1

[5] = system: Downy Brome; assay: Pre-emergence herbicide test; conditions: Bromus tectorum, read-out: % plant inhibition (Dobr); for inhibition at 1120 g/ha: 1.12 kg/ha; for inhibition at 11210 g/ha: 11.21 kg/ha
Procedure, shortened: as §1

[6] = system: Wild buckwheat; assay: Pre-emergence herbicide test; conditions: Fallopia convolvulus, read-out: % plant inhibition (Wibw); for inhibition at 1120 g/ha: 1.12 kg/ha; for inhibition at 11210 g/ha: 11.21 kg/ha
Procedure, shortened: as §1

[7] = system: Barnyardgrass; assay: Pre-emergence herbicide test; conditions: Echinochloa crus-galli, read-out: % plant inhibition (Bygr); for inhibition at 1120 g/ha: 1.12 kg/ha; for inhibition at 11210 g/ha: 11.21 kg/ha
Procedure, shortened: as §1

[8] = system: Velvetleaf; assay: Pre-emergence herbicide test; conditions: Abutilon theophrasti, read-out: % plant inhibition (Vele); for inhibition at 1120 g/ha: 1.12 kg/ha; for inhibition at 11210 g/ha: 11.21 kg/ha
Procedure, shortened: as §1

[9] = system: Morningglory; assay: Pre-emergence herbicide test; conditions: Ipomoea, read-out: % plant inhibition (Mogl); for inhibition at 1120 g/ha: 1.12 kg/ha; for inhibition at 11210 g/ha: 11.21 kg/ha
Procedure, shortened: as §1

[10] = system: Seedling johnsongrass; assay: Pre-emergence herbicide test; conditions: Sorghum halepense, read-out: % plant inhibition (Sejg); for inhibition at 1120 g/ha: 1.12 kg/ha; for inhibition at 11210 g/ha: 11.21 kg/ha
Procedure, shortened: as §1

[11] = system: Annual bluegrass; assay: Post-emergence herbicide test; conditions: read-out: % plant inhibition (Anbg); for inhibition at 1120 g/ha: 1.12 kg/ha; for inhibition at 11210 g/ha: 11.21 kg/ha
Procedure, shortened: (§2)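 Rating of injury as % inhibition against control took place at ~11 days (10–14), and sometimes at ~25 days (24–28), following atomizer application (170.3 kPa, 1870 L/Ha, ~0.4% v/v emulsifier) to greenhouse plants aged 2–3 weeks.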

[12] = system: Yellow nutsedge; assay: Post-emergence herbicide test; conditions: Cyperus, read-out: % plant inhibition (Yens); for inhibition at 1120 g/ha: 1.12 kg/ha; for inhibition at 11210 g/ha: 11.21 kg/ha
Procedure, shortened: as §2

[13] = system: Cocklebur; assay: Post-emergence herbicide test; conditions: Xanthium strumarium, read-out: % plant inhibition (Cobu); for inhibition at 1120 g/ha: 1.12 kg/ha; for inhibition at 11210 g/ha: 11.21 kg/ha
Procedure, shortened: as §2

[14] = system: Indian Mustard; assay: Post-emergence herbicide test; conditions: Brassica juncea, read-out: % plant inhibition (Inmu); for inhibition at 1120 g/ha: 1.12 kg/ha; for inhibition at 11210 g/ha: 11.21 kg/ha
Procedure, shortened: as §2

[15] = system: Downy Brome; assay: Post-emergence herbicide test; conditions: Bromus tectorum, read-out: % plant inhibition (Dobr); for inhibition at 1120 g/ha: 1.12 kg/ha; for inhibition at 11210 g/ha: 11.21 kg/ha
Procedure, shortened: as §2

[16] = system: Wild buckwheat; assay: Post-emergence herbicide test; conditions: Fallopia convolvulus, read-out: % plant inhibition (Wibw); for inhibition at 1120 g/ha: 1.12 kg/ha; for inhibition at 11210 g/ha: 11.21 kg/ha
Procedure, shortened: as §2

[17] = system: Barnyardgrass; assay: Post-emergence herbicide test; conditions: Echinochloa crus-galli, read-out: % plant inhibition (Bygr); for inhibition at 1120 g/ha: 1.12 kg/ha; for inhibition at 11210 g/ha: 11.21 kg/ha
Procedure, shortened: as §2

[18] = system: Velvetleaf; assay: Post-emergence herbicide test; conditions: Abutilon theophrasti, read-out: % plant inhibition (Vele); for inhibition at 1120 g/ha: 1.12 kg/ha; for inhibition at 11210 g/ha: 11.21 kg/ha
Procedure, shortened: as §2

[19] = system: Morningglory; assay: Post-emergence herbicide test; conditions: Ipomoea, read-out: % plant inhibition (Mogl); for inhibition at 1120 g/ha: 1.12 kg/ha; for inhibition at 11210 g/ha: 11.21 kg/ha
Procedure, shortened: as §2

[20] = system: Seedling johnsongrass; assay: Post-emergence herbicide test; conditions: Sorghum halepense, read-out: % plant inhibition (Sejg); for inhibition at 1120 g/ha: 1.12 kg/ha; for inhibition at 11210 g/ha: 11.21 kg/ha
Procedure, shortened: as §2

| Structure (SMILES) | inhibition at 1120 g/ha [1] | inhibition at 1120 g/ha [2] | inhibition at 1120 g/ha [3] | inhibition at 1120 g/ha [4] | inhibition at 1120 g/ha [5] | inhibition at 1120 g/ha [6] | inhibition at 1120 g/ha [7] | inhibition at 1120 g/ha [8] | inhibition at 1120 g/ha [9] | inhibition at 1120 g/ha [10] | inhibition at 1120 g/ha [11] | inhibition at 1120 g/ha [12] | inhibition at 1120 g/ha [13] | inhibition at 1120 g/ha [14] | inhibition at 1120 g/ha [15] | inhibition at 1120 g/ha [16] | inhibition at 1120 g/ha [17] | inhibition at 1120 g/ha [18] | inhibition at 1120 g/ha [19] | inhibition at 1120 g/ha [20] | other results |
| --- | --- | --- | --- | --- | --- | --- | --- | --- | --- | --- | --- | --- | --- | --- | --- | --- | --- | --- | --- | --- | --- |
| CCC(C)OC(=O)c1cc(-c2nn(C)c(C(F)(F)F)c2Cl)c(F)cc1Cl (centres unmarked) [Compound 136] | 90% | 0% | 80% | 90% | 100% | 100% | 70% | 90% | 80% | 90% | 100% | 10% | 100% | 100% | 100% | 100% | 100% | 100% | 100% | 100% | – |
| Cn1nc(-c2ccc([N+](=O)[O-])cc2)c(Cl)c1C(F)(F)F [Compound 81] | – | – | – | – | – | – | – | – | – | – | – | – | – | – | – | – | – | – | – | – | inhibition at 11210 g/ha [1]: 60%; inhibition at 11210 g/ha [2]: 0%; inhibition at 11210 g/ha [3]: 20%; inhibition at 11210 g/ha [4]: 20%; inhibition at 11210 g/ha [5]: 80%; inhibition at 11210 g/ha [6]: 100%; inhibition at 11210 g/ha [7]: 60%; inhibition at 11210 g/ha [8]: 90%; inhibition at 11210 g/ha [9]: 30%; inhibition at 11210 g/ha [10]: 90%; inhibition at 11210 g/ha [11]: 0%; inhibition at 11210 g/ha [12]: 50%; inhibition at 11210 g/ha [13]: 40%; inhibition at 11210 g/ha [14]: 10%; inhibition at 11210 g/ha [15]: 10%; inhibition at 11210 g/ha [16]: 90%; inhibition at 11210 g/ha [17]: 70%; inhibition at 11210 g/ha [18]: 80%; inhibition at 11210 g/ha [19]: 60%; inhibition at 11210 g/ha [20]: 70% |
| Cn1nc(-c2cc(S)c(Cl)cc2Cl)c(Cl)c1C(F)(F)F [Compound 93] | 0% | 0% | 20% | 10% | 0% | 20% | 0% | 20% | 30% | 0% | 10% | 0% | 70% | 60% | 50% | 90% | 70% | 90% | 60% | 40% | – |
| COc1cc(-c2c(Cl)c(C(F)(F)F)nn2C)c(F)cc1Cl [Compound 74] | 10% | 0% | 0% | 90% | 20% | 100% | 20% | 90% | 50% | 60% | 0% | 10% | 20% | 40% | 10% | 90% | 10% | 40% | 20% | 10% | – |
| Cn1nc(-c2cc(OCc3ccc(Cl)s3)c(Cl)cc2F)c(Cl)c1C(F)(F)F [Compound 252] | 30% | 0% | 30% | 10% | 60% | 10% | 20% | 20% | 40% | 60% | 90% | 20% | 100% | 100% | 100% | 100% | 90% | 100% | 100% | 100% | – |
| Cn1nc(-c2cc(N(S(C)(=O)=O)S(C)(=O)=O)c(Cl)cc2Cl)c(Cl)c1C(F)(F)F [Compound 87] | – | – | – | – | – | – | – | – | – | – | – | – | – | – | – | – | – | – | – | – | inhibition at 11210 g/ha [1]: 10%; inhibition at 11210 g/ha [2]: 10%; inhibition at 11210 g/ha [3]: 10%; inhibition at 11210 g/ha [4]: 70%; inhibition at 11210 g/ha [5]: 20%; inhibition at 11210 g/ha [6]: 90%; inhibition at 11210 g/ha [7]: 40%; inhibition at 11210 g/ha [8]: 90%; inhibition at 11210 g/ha [9]: 70%; inhibition at 11210 g/ha [10]: 30%; inhibition at 11210 g/ha [11]: 10%; inhibition at 11210 g/ha [12]: 10%; inhibition at 11210 g/ha [13]: 50%; inhibition at 11210 g/ha [14]: 30%; inhibition at 11210 g/ha [15]: 0%; inhibition at 11210 g/ha [16]: 40%; inhibition at 11210 g/ha [17]: 20%; inhibition at 11210 g/ha [18]: 100%; inhibition at 11210 g/ha [19]: 70%; inhibition at 11210 g/ha [20]: 40% |
| CCOC(=O)CON=C(C)c1cc(-c2nn(C)c(C(F)(F)F)c2Cl)c(F)cc1Cl [Compound 104] | 20% | 0% | 20% | 80% | 80% | 70% | 10% | 90% | 80% | 80% | 30% | 20% | 70% | 40% | 40% | 100% | 50% | 100% | 100% | 80% | – |
| COC(=O)Cc1cc(-c2nn(C)c(C(F)(F)F)c2Cl)c(F)cc1Cl [Compound 110] | 0% | 0% | 50% | 80% | 0% | 70% | 20% | 100% | 70% | 0% | 30% | 20% | 60% | 30% | 20% | 100% | 70% | 100% | 80% | 40% | – |
| Cc1cc(-c2nn(C)c(C(F)(F)F)c2Br)c(F)cc1Cl [Compound 125] | 100% | 0% | 30% | 100% | 90% | 100% | 100% | 100% | 90% | 100% | 20% | 0% | 40% | 30% | 0% | 100% | 0% | 100% | 30% | 0% | – |
| CC(=O)OCc1cc(-c2nn(C)c(C(F)(F)F)c2Cl)c(F)cc1Cl [Compound 121] | – | – | – | – | – | – | – | – | – | – | – | – | – | – | – | – | – | – | – | – | inhibition at 11210 g/ha [1]: 100%; inhibition at 11210 g/ha [2]: 70%; inhibition at 11210 g/ha [3]: 60%; inhibition at 11210 g/ha [4]: 100%; inhibition at 11210 g/ha [5]: 70%; inhibition at 11210 g/ha [6]: 100%; inhibition at 11210 g/ha [7]: 100%; inhibition at 11210 g/ha [8]: 100%; inhibition at 11210 g/ha [9]: 100%; inhibition at 11210 g/ha [10]: 80%; inhibition at 11210 g/ha [11]: 40%; inhibition at 11210 g/ha [12]: 20%; inhibition at 11210 g/ha [13]: 90%; inhibition at 11210 g/ha [14]: 90%; inhibition at 11210 g/ha [15]: 90%; inhibition at 11210 g/ha [16]: 100%; inhibition at 11210 g/ha [17]: 100%; inhibition at 11210 g/ha [18]: 100%; inhibition at 11210 g/ha [19]: 100%; inhibition at 11210 g/ha [20]: 90% |
